Assays:
Clostridium difficile = Clostridium difficile proliferation in gut microbiota (PCR); format: cell-based; conditions: human feces culture; lactic acid bacteria 1×10^6 CFU/mL; anaerobic 24 hr
Method: Fresh human feces were suspended in anaerobic medium (GAM, Nissui Pharmaceutical Co., Ltd., Japan) and allowed to stand for 10 min. The supernatant was diluted with 10,000-fold anaerobic medium, 0.05 mL of the dilution was transplanted into 5 mL of freshly made anaerobic medium, and lactic acid bacteria (1×10^6 CFU/mL) were implanted and incubated anaerobically for 24 hr. This culture medium was divided into two, one was centrifuged (5000 rpm, 20 minutes), the precipitated DNA was isolated using the QIAamp DNA stool mini kit (Qiagen, Germany), and Clostridium difficile (primer: forward, 5′-[…]-3′ (SEQ ID NO: 4); reverse, 5′-[…]-3′ (SEQ ID NO: 5) was quantified by PCR. The reaction product was first treated at 95° C. for 30 seconds, followed by 42 cycles of 5 seconds at 95° C. and 30 seconds at 72° C. for analysis. In addition, one culture medium was sonicated, centrifuged, and filter-sterilized, and the amount of LPS in the supernatant was measured using an ELISA kit.

[1] = Antioxidant activity (DPPH, in vitro); format: biochemical; conditions: DPPH 0.2 mM; lactic acid bacteria suspension 1×10^8 CFU/ml; 37° C. 20 min
Method: DPPH (2,2-Diphenyl-1-picrylhydrazyl) was dissolved in ethanol to a concentration of 0.2 mM to prepare DPPH solution. Lactic acid bacteria suspension (1×10^8 CFU/ml) or vitamin C solution (1 g/ml) was added to 0.1 ml of the above DPPH solution and incubated at 37° C. for 20 min. The culture was centrifuged at 3000 rpm for 5 min to obtain a supernatant. The absorbance of the supernatant was then measured at 517 nm and the antioxidant activity of the lactic acid bacteria was calculated.

BDNF = BDNF expression in SH-SY5Y cells; format: cell-based; conditions: LPS 200 ng/ml; lactic acid bacteria 1×10^4 CFU/ml; 24 h
Method: (§1) SH-SY5Y cells obtained from the Korean Cell Line Bank were cultured in DMEM medium supplemented with 10% FBS and 1% antibiotics, and dispensed at 2×10^6 cells per well in a 12-well plate. Then, LPS (200 ng/ml) was added to each well along with lactic acid bacteria (1×10^4 CFU/ml) and incubated for 24 h. The cells and supernatants were collected, sonicated and centrifuged, and the amount of BDNF in the supernatant was measured by ELISA kit.

IL-10 = IL-10 expression in LPS-treated macrophages (ELISA); format: cell-based, C57BL/6 mice; conditions: macrophages treated with lactic acid bacteria and LPS for 24 hours
Method: (§2) C57BL/6 mice (male, 6 weeks old, 20-23 g) were subjected to an intraperitoneal injection of 2 ml of sterile 4% thioglycolate solution, and after 96 hours, the mice were anesthetized and injected with 8 ml of RPMI 1640 medium through the peritoneal cavity. Then, after 5-10 minutes, the RPMI medium (macrophages) in the mouse peritoneal cavity was extracted, centrifuged at 1000 g for 10 minutes, and washed again with RPMI 1640 medium twice. Macrophages were seeded in 24-well plates at a count of 0.5×10^6 in each well, and treated with lactic acid bacteria and LPS, an inflammatory response-inducing substance, for 24 hours. TNF-α and IL-10 cytokine expression amount in the culture supernatant was then measured by ELISA Kit.

Neuropeptide Y (NPY) = Neuropeptide Y (NPY) expression in PC12 phaeochromocytoma cells; format: cell-based; conditions: LPS 200 ng/ml; lactic acid bacteria 1×10^4 CFU/ml; 24 hr
Method: as §1, with “PC12” for “SH-SY5Y”, “1×10^6” for “2×10^6”, “hr.” for “h.”, “NPY” for “BDNF”

gut microbiota = experiment: LPS production in gut microbiota (ELISA); format: cell-based; conditions: human feces culture; lactic acid bacteria 1×10^6 CFU/mL; anaerobic 24 hr
Method: Fresh human feces were suspended in anaerobic medium (GAM, Nissui Pharmaceutical Co., Ltd., Japan) and allowed to stand for 10 min. The supernatant was diluted with 10,000-fold anaerobic medium, 0.05 mL of the dilution was transplanted into 5 mL of freshly made anaerobic medium, and lactic acid bacteria (1×10^6 CFU/mL) were implanted and incubated anaerobically for 24 hr.

TNF-α = TNF-α expression in LPS-treated macrophages (ELISA); format: cell-based, C57BL/6 mice; conditions: macrophages treated with lactic acid bacteria and LPS for 24 hours
Method: as §2

Substance	Gut microbiota Inhibition of difficile bacteria proliferation (Clostridium difficile)	Antioxidant activity [1]	SHSY5Y cell Induction of BDNF expression (BDNF)	Macrophage Induction of IL-10 expression (IL-10)	PC12 cell Induction of NPY expression (Neuropeptide Y (NPY))	Gut microbiota Inhibition of LPS production (gut microbiota)	Macrophage Inhibition of TNF-α expression (TNF-α)
Lactobacillus johnsonii NK202	+ (weakly (+; >20-60%))	+ (weakly (+; >20-60%))	+ (weakly (+; >20-60%))	+ (weakly (+; >20-60%))	+ (weakly (+; >20-60%))	+ (weakly (+; >20-60%))	+ (weakly (+; >20-60%))
Lactobacillus johnsonii NK203	− (not or less than 20% (−; <20%))	+ (weakly (+; >20-60%))	− (not or less than 20% (−; <20%))	+ (weakly (+; >20-60%))	− (not or less than 20% (−; <20%))	− (not or less than 20% (−; <20%))	+ (weakly (+; >20-60%))
Lactobacillus mucosae NK204	+ (weakly (+; >20-60%))	+ (weakly (+; >20-60%))	− (not or less than 20% (−; <20%))	− (not or less than 20% (−; <20%))	− (not or less than 20% (−; <20%))	− (not or less than 20% (−; <20%))	− (not or less than 20% (−; <20%))
Lactobacillus mucosae NK205	− (not or less than 20% (−; <20%))	+ (weakly (+; >20-60%))	− (not or less than 20% (−; <20%))	− (not or less than 20% (−; <20%))	+ (weakly (+; >20-60%))	− (not or less than 20% (−; <20%))	− (not or less than 20% (−; <20%))
Lactobacillus paracasei NK189	+ (weakly (+; >20-60%))	+ (weakly (+; >20-60%))	− (not or less than 20% (−; <20%))	− (not or less than 20% (−; <20%))	− (not or less than 20% (−; <20%))	+ (weakly (+; >20-60%))	+ (weakly (+; >20-60%))
Lactobacillus plantarum NK181	+ (weakly (+; >20-60%))	+ (weakly (+; >20-60%))	− (not or less than 20% (−; <20%))	− (not or less than 20% (−; <20%))	+ (weakly (+; >20-60%))	− (not or less than 20% (−; <20%))	+ (weakly (+; >20-60%))
Lactobacillus plantarum NK182	++ (strongly (++; >60-90%))	++ (strongly (++; >60-90%))	− (not or less than 20% (−; <20%))	− (not or less than 20% (−; <20%))	− (not or less than 20% (−; <20%))	− (not or less than 20% (−; <20%))	− (not or less than 20% (−; <20%))
Lactobacillus plantarum NK183	+ (weakly (+; >20-60%))	+ (weakly (+; >20-60%))	− (not or less than 20% (−; <20%))	− (not or less than 20% (−; <20%))	− (not or less than 20% (−; <20%))	+ (weakly (+; >20-60%))	+ (weakly (+; >20-60%))
Lactobacillus plantarum NK184	+ (weakly (+; >20-60%))	++ (strongly (++; >60-90%))	− (not or less than 20% (−; <20%))	+ (weakly (+; >20-60%))	− (not or less than 20% (−; <20%))	+ (weakly (+; >20-60%))	+ (weakly (+; >20-60%))
Lactobacillus reuteri NK200	+ (weakly (+; >20-60%))	+ (weakly (+; >20-60%))	+ (weakly (+; >20-60%))	− (not or less than 20% (−; <20%))	+ (weakly (+; >20-60%))	+ (weakly (+; >20-60%))	− (not or less than 20% (−; <20%))
Lactobacillus reuteri NK201	+ (weakly (+; >20-60%))	+ (weakly (+; >20-60%))	+ (weakly (+; >20-60%))	+ (weakly (+; >20-60%))	+ (weakly (+; >20-60%))	+ (weakly (+; >20-60%))	+ (weakly (+; >20-60%))
Lactobacillus rhamnosus NK211	+ (weakly (+; >20-60%))	+ (weakly (+; >20-60%))	− (not or less than 20% (−; <20%))	+ (weakly (+; >20-60%))	− (not or less than 20% (−; <20%))	− (not or less than 20% (−; <20%))	+ (weakly (+; >20-60%))
Lactobacillus rhamnosus NK212	− (not or less than 20% (−; <20%))	++ (strongly (++; >60-90%))	− (not or less than 20% (−; <20%))	− (not or less than 20% (−; <20%))	− (not or less than 20% (−; <20%))	+ (weakly (+; >20-60%))	− (not or less than 20% (−; <20%))
Lactobacillus sakei NK197	+ (weakly (+; >20-60%))	++ (strongly (++; >60-90%))	− (not or less than 20% (−; <20%))	+ (weakly (+; >20-60%))	+ (weakly (+; >20-60%))	+ (weakly (+; >20-60%))	+ (weakly (+; >20-60%))
Lactobacillus sakei NK198	− (not or less than 20% (−; <20%))	++ (strongly (++; >60-90%))	− (not or less than 20% (−; <20%))	− (not or less than 20% (−; <20%))	+ (weakly (+; >20-60%))	++ (strongly (++; >60-90%))	− (not or less than 20% (−; <20%))

From patent US20250009819A1, “NOVEL PROBIOTICS AND USE THEREOF” (PBLBIOLAB CO., LTD., priority 2021, published 2025)
